Biological target: T1, KRAS G12C (GMPPNP-loaded, Cys-light, amino acids 1-169) and cRAF Ras-binding domain interaction (Homo sapiens, UniProt P01116, C118S/C51S/C80L/G12C)
T1 construct: truncated version comprising amino acids 1-169
Test: Inhibition of KRAS G12C and cRAF binding (AlphaScreen)
Conditions: KRAS G12C preloaded with GMPPNP, 2 hours compound incubation, room temperature
Method: The AlphaScreen technology was used to determine IC50s for compound inhibition of KRAS G12C (present as the Cys-light (C51S, C80L and C118S), truncated version comprising amino acids 1-169) and cRAF interaction. Compounds were diluted in 100% DMSO and each compound concentration was spotted at 200 nl/well onto low volume, white 384 well plates. The KRAS G12C contained a biotin-AviTag and the cRaf, as Ras-binding domain (amino acids 50-131, RBD), was GST-tagged. KRAS G12C was preloaded with the GTP analogue Guanosine 5′-[…] (GMPPNP). The KRAS G12C was diluted in 25 mM Hepes, pH 7.4, 150 mM NaCl, 5 mM MgCl2, 0.01% TritonX-100 and 10 μM GMPPNP and added at 10 ul/well to compound-spotted plates resulting in a DMSO concentration of 2%. Plates were incubated for 2 hours. A mixture of RBD and the AlphaScreen streptavidin donor and glutathione acceptor beads diluted in 25 mM Hepes, pH 7.4, 150 mM NaCl, 5 mM MgCl2, 0.01% TritonX-100 and 2% DMSO was then added at 10 ul/well and incubated for 60-90 minutes before the samples were read for emission at 570 nm after excitation of the donor beads at 680 nm. All incubations were performed at room temperature. The final top compound concentration was 50 μM with 1:3 titrations for 10-point dose response curves. Final assay conditions were 0.5 nM KRAS G12C, 0.75 nM RBD and 5 μg/ml each of AlphaScreen donor and acceptor beads. IC50s were determined using nonlinear regression fit of [inhibitor] vs. response (4 parameters).
A counter assay was also set up to rule out inhibitors of the AlphaScreen technology itself. Compound plates were incubated for 2 hours as above with buffer only. The AlphaScreen beads were added as above except biotin-AviTag-GST was substituted for the RBD. Samples were read and analyzed as above.

T1 sequence (P01116 1-169 isoform P01116-2 G12C/C51S/C80L/C118S): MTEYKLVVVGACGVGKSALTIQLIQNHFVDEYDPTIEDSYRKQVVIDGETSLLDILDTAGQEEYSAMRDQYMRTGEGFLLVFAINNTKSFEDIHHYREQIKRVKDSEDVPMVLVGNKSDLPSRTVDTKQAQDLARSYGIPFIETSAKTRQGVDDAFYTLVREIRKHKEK

SMILES | IC50 [nM]
COc1nc(N(C)[C@@H]2CCN(C(=O)/C(F)=C/c3cc(C)nc(C)n3)C2)c2cnc(-c3cc(O)cc(Cl)c3C3CC3)c(F)c2n1 [Compound 56, (R,Z)-1-(3-((7-(3-chloro-2-cyclopropyl-5-hydroxyphenyl)-8-fluoro-2-methoxypyrido[4,3-d]pyrimidin-4-yl)(methyl)amino)pyrrolidin-1-yl)-3-(2,6-dimethylpyrimidin-4-yl)-2-fluoroprop-2-en-1-one] | 100 to 500
Cc1cc(/C=C(\F)C(=O)N2CCN(c3nc(C)nc4c(F)c(-c5cc(O)cc(Cl)c5C5CC5)ncc34)C[C@@H]2CC#N)nc(C)n1 [Compound 57] | < 10
Cc1cc(/C=C(\F)C(=O)N2CCN(c3ncnc4c(F)c(-c5cc(O)cc(Cl)c5C5CC5)ncc34)C[C@@H]2CC#N)nc(C)n1 [Compound 58] | < 10

— US20260274867A1, “PYRIDO[4,3-D]PYRIMIDINE DERIVATIVES AS MUTANT KRAS G12C INHIBITORS FOR THE TREATMENT OF CANCER” (Frontier Medicines Corporation, priority 2023, published 2026)
